# Source: PMC10870114 (Clinical Cancer Research, 2023)
# Experiment: Plasma pharmacokinetics on fraction day
# Assay type: in vivo, human
# Conditions: plasma, patients given peposertib
compound,measurement,value
Oc1ccc(C(O)c2cc(-c3ncnc4cc(N5CCOCC5)ccc34)c(F)cc2Cl)nn1 (centres unmarked) [M467],"Average exposure proportion compared with peposertib, AUC",< 25%
same,"Average exposure proportion compared with peposertib, Cmax",< 16%
